From PubChem BioAssay (NCI)
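Each compound was tested at five concentrations against cells in 96-well plates for 48 hours. GI50 is the concentration that inhibits growth by half. TGI denotes the concentration required for complete inhibition of growth.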

Experiments:
Assay in all cases: NCI tumour cell line growth inhibition, 48 h
[1] = system: MCF7 breast
[2] = system: CCRF-CEM leukemia
[3] = system: UACC-62 melanoma
[4] = system: A549 NSCLC
[5] = system: BT-549 breast
[6] = system: SK-MEL-2 melanoma
[7] = system: K-562 leukemia
[8] = system: UO-31 renal
[9] = system: OVCAR-4 ovarian
[10] = system: UACC-257 melanoma
[11] = system: HOP-62 NSCLC
[12] = system: NCI-H460 lung
[13] = system: 786-0 renal
[14] = system: HCC-2998 colon
[15] = system: SK-MEL-28 melanoma
[16] = system: SW-620 colon
[17] = system: SNB-75 CNS
[18] = system: HOP-92 NSCLC
[19] = system: NCI-H23 lung
[20] = system: IGROV1 ovarian
[21] = system: DU-145 prostate
[22] = system: OVCAR-5 ovarian
[23] = system: TK-10 renal
[24] = system: HL-60(TB) leukemia
[25] = system: SN12C renal
[26] = system: CAKI-1 renal
[27] = system: RPMI-8226 leukemia
[28] = system: T-47D breast
[29] = system: KM12 colon
[30] = system: PC-3 prostate
[31] = system: HS 578T breast
[32] = system: A498 renal
[33] = system: MDA-MB-468 breast
[34] = system: SF-539 CNS
[35] = system: SK-MEL-5 melanoma
[36] = system: OVCAR-8 ovarian
[37] = system: MALME-3M melanoma
[38] = system: MDA-MB-435
[39] = system: NCI/ADR-RES ovarian
[40] = system: HCT-116 colon
[41] = system: ACHN renal
[42] = system: NCI-H226 lung
[43] = system: EKVX NSCLC
[44] = system: LOX IMVI melanoma
[45] = system: SF-268 CNS
[46] = system: HT29 colon
[47] = system: SF-295 CNS
[48] = system: SNB-19 CNS
[49] = system: MOLT-4 leukemia
[50] = system: MDA-MB-231 breast
[51] = system: M14 melanoma
[52] = system: U251 CNS
[53] = system: SK-OV-3 ovarian
[54] = system: COLO 205 colon
[55] = system: SR leukemia
[56] = system: NCI-H522 lung
[57] = system: HCT-15 colon
[58] = system: RXF 393 renal
[59] = system: OVCAR-3 ovarian

## N/C(=N\c1nc2ccccc2s1)NC(=O)Nc1ccc(Cl)cc1Cl
[1]
  GI50: 309 nM
  TGI: 1780 nM
[2]
  GI50: 360 nM
  TGI: 3800 nM
[3]
  GI50: 374 nM
  TGI: 3200 nM
[4]
  GI50: 878 nM
  TGI: 2840 nM
[5]
  GI50: 414 nM
  TGI: 5040 nM
[6]
  GI50: 351 nM
  TGI: 1170 nM
[7]
  GI50: 370 nM
[8]
  GI50: 503 nM
  TGI: 1960 nM
[9]
  GI50: 1530 nM
  TGI: 5070 nM
[10]
  GI50: 2070 nM
  TGI: 17700 nM
[11]
  GI50: 397 nM
  TGI: 1810 nM
[12]
  GI50: 419 nM
  TGI: 1510 nM
[13]
  GI50: 456 nM
  TGI: 1760 nM
[14]
  GI50: 978 nM
  TGI: 2860 nM
[15]
  GI50: 1040 nM
  TGI: 5670 nM
[16]
  GI50: 455 nM
  TGI: 2460 nM
[17]
  GI50: 230 nM
  TGI: 997 nM
[18]
  GI50: 923 nM
  TGI: 3910 nM
[19]
  GI50: 835 nM
  TGI: 2440 nM
[20]
  GI50: 558 nM
  TGI: 2350 nM
[21]
  GI50: 1000 nM
  TGI: 3060 nM
[22]
  GI50: 948 nM
  TGI: 3090 nM
[23]
  GI50: 1910 nM
  TGI: 4280 nM
[24]
  GI50: 295 nM
[25]
  GI50: 566 nM
  TGI: 2210 nM
[26]
  GI50: 389 nM
  TGI: 2210 nM
[27]
  GI50: 1120 nM
  TGI: 8960 nM
[28]
  GI50: 421 nM
  TGI: 6420 nM
[29]
  GI50: 439 nM
  TGI: 3600 nM
[30]
  GI50: 753 nM
  TGI: 3890 nM
[31]
  GI50: 289 nM
  TGI: 2430 nM
[32]
  GI50: 1640 nM
  TGI: 3730 nM
[33]
  GI50: 271 nM
  TGI: 788 nM
[34]
  GI50: 261 nM
  TGI: 842 nM
[35]
  GI50: 352 nM
  TGI: 1710 nM
[36]
  GI50: 766 nM
  TGI: 4610 nM
[37]
  GI50: 454 nM
  TGI: 2130 nM
[38]
  GI50: 160 nM
  TGI: 510 nM
[39]
  GI50: 269 nM
  TGI: 937 nM
[40]
  GI50: 384 nM
  TGI: 1510 nM
[41]
  GI50: 574 nM
  TGI: 2080 nM
[42]
  GI50: 948 nM
  TGI: 2680 nM
[43]
  GI50: 489 nM
  TGI: 2660 nM
[44]
  GI50: 567 nM
  TGI: 1960 nM
[45]
  GI50: 1160 nM
  TGI: 23000 nM
[46]
  GI50: 341 nM
  TGI: 1150 nM
[47]
  GI50: 334 nM
  TGI: 1310 nM
[48]
  GI50: 672 nM
  TGI: 5540 nM
[49]
  GI50: 536 nM
[50]
  GI50: 571 nM
  TGI: 2180 nM
[51]
  GI50: 390 nM
  TGI: 1840 nM
[52]
  GI50: 458 nM
  TGI: 1750 nM
[53]
  GI50: 434 nM
  TGI: 2210 nM
[54]
  GI50: 491 nM
  TGI: 1780 nM
[55]
  GI50: 952 nM
[56]
  GI50: 194 nM
  TGI: 787 nM
[57]
  GI50: 379 nM
  TGI: 1980 nM
[58]
  GI50: 357 nM
  TGI: 1690 nM
[59]
  GI50: 359 nM
  TGI: 1340 nM
